# Literature values as cited in US7767227B2, “Galenical form for oral administration with prolonged release of molsidomine” (Therabel Pharmaceuticals Limited, priority 2000, dated 2010).
# Where two headings read alike, the source gives them in different places.
smiles,measurement,setting,value
"CCOC(=O)[N-]c1cn(N2CCOCC2)n[o+]1 [Molsidomine, N-(ethoxycarbonyl)-3-(4-morpholinyl)sydnone imine]",period of action,4 mg dose,4 to 5 h
same,period of action,8 mg dose,10 to 12 h
